Assay results as given in US3966701A, “Fibrinogen peptide derivatives” (The Dow Chemical Company, priority 1973, dated 1976).
Where a SMILES comes first, the peptide text is derived from it. The star is where a group is joined. Boc = CC(C)(C)OC(=O)*; OBn = c1ccc(CO*)cc1

Assays:
thrombin [1] = assay: in vitro thrombin time (TT): exogenous thrombin added to oxalated plasma, clotting time measured; assay type: biochemical; details: oxalated dog plasma, thrombin 1 unit/ml, control 15 sec
Experimental: Their anticoagulant activity was determined by measuring thrombin time (TT) utilizing an in vitro test wherein exogenous thrombin is added to oxalated plasma and clotting time is measured in the presence of the test compound.
^a Clotting mixture: 0.2 ml. oxalated dog plasma, 0.1 ml. barbital
buffer containing peptide and 0.1 ml. thrombin (1 unit/ml.)

thrombin [2] = assay: in vitro plasma recalcification time (PRT): calcium ions added to oxalated plasma, clotting time measured; assay type: biochemical, dog
Experimental: The plasma recalcification time (PRT) was also used in an in vitro test for measuring thrombin inhibition wherein exogenous calcium ions were added to oxalated plasma (the system makes its thrombin in situ), and measuring clotting time in the presence of the compounds.
0.2 ml. oxalated dog plasma
0.1 ml. Barbital buffer saline containing test compound
0.1 ml. oxalated dog plasma
0.2 ml. Barbital buffer saline containing test compound

[3] = 0.25 mg/ml, clotting mixture (a), 0.2 ml oxalated dog plasma, control 66 sec
[4] = 0.5 mg/ml, clotting mixture (a), 0.2 ml oxalated dog plasma, control 66 sec
[5] = 1.0 mg/ml, clotting mixture (a), 0.2 ml oxalated dog plasma, control 66 sec
[6] = 1.5 mg/ml, clotting mixture (a), 0.2 ml oxalated dog plasma, control 66 sec

Compound	Thrombin Times (sec) at Peptide Concentrations (mg/ml) (thrombin [1]; 0.125 mg/ml peptide) [s]	Thrombin Times (sec) at Peptide Concentrations (mg/ml) (thrombin [1]; 0.25 mg/ml peptide) [s]	Thrombin Times (sec) at Peptide Concentrations (mg/ml) (thrombin [1]; 0.5 mg/ml peptide) [s]	Thrombin Times (sec) at Peptide Concentrations (mg/ml) (thrombin [1]; 1.0 mg/ml peptide) [s]	Thrombin Times (sec) at Peptide Concentrations (mg/ml) (thrombin [1]; 2.0 mg/ml peptide) [s]	PRT (average) (thrombin [2]; [3]) [s]	PRT (average) (thrombin [2]; [4]) [s]	PRT (average) (thrombin [2]; [5]) [s]	PRT (average) (thrombin [2]; [6]) [s]	PRT (average) (thrombin [2]; 2 mg/ml, clotting mixture (a), 0.2 ml oxalated dog plasma, control 66 sec) [s]	PRT (average) (thrombin [2]; 0.25 mg/ml, clotting mixture (a), 0.2 ml oxalated dog plasma, control 55 sec) [s]	PRT (average) (thrombin [2]; 0.5 mg/ml, clotting mixture (a), 0.2 ml oxalated dog plasma, control 55 sec) [s]	PRT (average) (thrombin [2]; 1.0 mg/ml, clotting mixture (a), 0.2 ml oxalated dog plasma, control 55 sec) [s]	PRT (average) (thrombin [2]; 1.5 mg/ml, clotting mixture (a), 0.2 ml oxalated dog plasma, control 55 sec) [s]	PRT (average) (thrombin [2]; 2 mg/ml, clotting mixture (a), 0.2 ml oxalated dog plasma, control 55 sec) [s]	PRT (average) (thrombin [2]; 0.25 mg/ml, clotting mixture (b), 0.1 ml oxalated dog plasma, control 115 sec) [s]	PRT (average) (thrombin [2]; 0.5 mg/ml, clotting mixture (b), 0.1 ml oxalated dog plasma, control 115 sec) [s]	PRT (average) (thrombin [2]; 1.0 mg/ml, clotting mixture (b), 0.1 ml oxalated dog plasma, control 115 sec) [s]	PRT (average) (thrombin [2]; 2 mg/ml, clotting mixture (b), 0.1 ml oxalated dog plasma, control 115 sec) [s]
CC(C)(C)OC(=O)N1CCC[C@H]1C(=O)N[C@@H](CCCNC(=N)N)C(=O)OCc1ccccc1.CO.Cc1ccc(S(=O)(=O)O)cc1 [Example 1, N-t-Butyloxycarbonyl-L-prolyl-L-arginine Benzyl Ester p-Toluenesulfonate Methanolate] (Boc-Pro-Arg-OBn)	40	44	73	91	159	128	160	207	229	250	–	–	–	–	–	–	–	–	–
CC(C)(C)OC(=O)NCC(=O)N1CCC[C@H]1C(=O)N[C@@H](CCCNC(=N)N)C(=O)OCc1ccccc1.Cc1ccc(S(=O)(=O)O)cc1 [Example 3, N-t-Butyloxycarbonylglycyl-L-prolyl-L-arginine Benzyl Ester p-Toluenesulfonate] (Boc-Gly-Pro-Arg-OBn)	23	29	42	56	75	88	110	146	202	–	–	–	–	–	–	–	–	–	–
Glycyl-L-Prolyl-L-Arginine Benzyl Ester p-Toluenesulfonate Trifluoroacetate [Example 4]	19	26	44	68	135	–	–	–	–	–	77	100	198	246	296	–	–	–	–
L-Prolyl-L-arginine Benzyl Ester p-Toluenesulfonate Trifluoroacetate [Example 2]	19	23	31	46	69	89	102	134	209	–	–	–	–	–	–	–	–	–	–
N-Benzyloxycarbonyl-L-prolyl-L-arginine Benzyl Ester p-Toluenesulfonate Methanolate [Example 5]	–	–	–	–	–	–	–	–	–	–	–	–	–	–	–	240	270	345	435
